Measurements as given in PubChem BioAssay (NCI).
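Each compound was tested at five concentrations against cells in 96-well plates for 48 hours. Definition used: TGI = concentration required for complete inhibition of growth.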 Where a SMILES comes first, the peptide text is derived from it. The star is where a group is joined. Cbz = O=C(OCc1ccccc1)*; NHNH2 = NN*

Experiments:
Assay in all cases: inhibition of tumour cell growth, NCI panel, 48 h
SK-OV-3 ovarian = test system: SK-OV-3 ovarian
SNB-75 CNS = test system: SNB-75 CNS
OVCAR-8 ovarian = test system: OVCAR-8 ovarian
UO-31 renal = test system: UO-31 renal
RXF 393 renal = test system: RXF 393 renal
SW-620 colon = test system: SW-620 colon
SK-MEL-5 melanoma = test system: SK-MEL-5 melanoma
CCRF-CEM leukemia = test system: CCRF-CEM leukemia
KM12 colon = test system: KM12 colon
SNB-19 CNS = test system: SNB-19 CNS
K-562 leukemia = test system: K-562 leukemia
M14 melanoma = test system: M14 melanoma
U251 CNS = test system: U251 CNS
786-0 renal = test system: 786-0 renal
CAKI-1 renal = test system: CAKI-1 renal
UACC-257 melanoma = test system: UACC-257 melanoma
DU-145 prostate = test system: DU-145 prostate
MDA-N = test system: MDA-N

Measured: TGI

CC(=O)N(O)Cc1ccccc1
not listed: DU-145 prostate | MDA-N
> 100 µM: all other assays above

CN1C(=O)CC2CCC(=O)N2c2cccnc21 (stereo not given)
not listed: SK-OV-3 ovarian | SNB-75 CNS | RXF 393 renal
> 100 µM: all other assays above

C#CC1(O)CCC2[C@@H]3CCc4cc(Oc5nc(F)nc(-c6c7ccccc7cn6C)n5)ccc4C3CC[C@@]21C (stereo not given in full)
> 67 µM: CCRF-CEM leukemia
not listed: SK-MEL-5 melanoma | DU-145 prostate | MDA-N
> 100 µM: all other assays above

OC12c3ccccc3C3CCC4(OCCO4)C3C1c1ccccc12 (stereo not given)
not listed: DU-145 prostate | MDA-N
> 100 µM: all other assays above

CCOC(=O)C1([Se]c2ccccc2)CCCC1=O (stereo not given)
58 µM: SK-MEL-5 melanoma
47.2 µM: M14 melanoma
30.5 µM: OVCAR-8 ovarian
28.4 µM: 786-0 renal
69.1 µM: SNB-75 CNS
23.3 µM: U251 CNS
21.3 µM: RXF 393 renal
56.8 µM: CCRF-CEM leukemia
51.6 µM: UO-31 renal
not listed: SW-620 colon | DU-145 prostate | MDA-N
> 100 µM: all other assays above

O=C1CSC2=NC3=C(CSC/C3=C\c3ccccc3)C(c3ccccc3)N12 (stereo not given)
not listed: RXF 393 renal | SNB-19 CNS | CAKI-1 renal
> 100 µM: all other assays above

CC(C)(C)OC(=O)Cn1ncn(NC(=O)Cc2ccccc2)c1=O
not listed: SNB-75 CNS | RXF 393 renal
> 10 µM: all other assays above

O=C1CCCCC/C1=C\c1ccccc1
not listed: OVCAR-8 ovarian | RXF 393 renal | CCRF-CEM leukemia
> 100 µM: all other assays above

N#C/C(N)=C(\C#N)N=CNc1ccc(N)cc1
not listed: RXF 393 renal
> 100 µM: all other assays above

COc1ccc2c(c1)c(=O)c1c(NCCN(C)C)ccc3nnn2c31
17 µM: UACC-257 melanoma
10.5 µM: RXF 393 renal
19.7 µM: SNB-19 CNS
14.1 µM: SK-MEL-5 melanoma
9.11 µM: SW-620 colon
23.9 µM: SK-OV-3 ovarian
16.2 µM: M14 melanoma
13.6 µM: OVCAR-8 ovarian | CAKI-1 renal
6.03 µM: KM12 colon
16.5 µM: U251 CNS
14.8 µM: 786-0 renal
13.3 µM: UO-31 renal
20.7 µM: SNB-75 CNS
10.3 µM: CCRF-CEM leukemia
15.5 µM: K-562 leukemia

CCCN(CCC)c1c([N+](=O)[O-])cc(C(=O)N(CCO)CCO)cc1[N+](=O)[O-]
not listed: RXF 393 renal | SW-620 colon | SNB-19 CNS | DU-145 prostate | MDA-N
> 100 µM: all other assays above

CCCC1(CCC)c2cc(/C=N\O)ccc2-c2ccc(-c3ccc(C(C)(C)C)cc3)cc21
68.8 µM: CCRF-CEM leukemia
not listed: RXF 393 renal | U251 CNS
> 100 µM: all other assays above

CCOC(=O)CCC(NC(=O)OCc1ccccc1)C(=O)NC(CCC(=O)OCC)C(=O)NN (stereo not given) (Cbz-Glu(OEt)-Glu(OEt)-NHNH2; configuration not given here)
not listed: SK-OV-3 ovarian | RXF 393 renal | CCRF-CEM leukemia | CAKI-1 renal | DU-145 prostate
> 100 µM: all other assays above

COC(=O)/C=C(\S/C=C(/c1ccccc1)N1CCn2c(C(=O)c3ccccc3)c(C(=O)OC)c(C(=O)OC)c21)C(=O)OC
4.2 µM: CCRF-CEM leukemia
2.03 µM: SW-620 colon
4.67 µM: RXF 393 renal
3.21 µM: OVCAR-8 ovarian
5.83 µM: M14 melanoma
9.21 µM: UACC-257 melanoma
3.19 µM: 786-0 renal
not listed: UO-31 renal | DU-145 prostate
> 10 µM: all other assays above

Cc1ccc(NC(=O)/C(=N/N(C)C)C(C2OC(=O)c3ccccc32)[N+](=O)[O-])cc1 (stereo not given)
not listed: SNB-19 CNS | DU-145 prostate
> 100 µM: all other assays above
